Test results as given in publication PMC8449129, “Single tracer-based protocol for broad-spectrum kinase profiling in live cells with NanoBRET” (STAR Protocols, 2021).

Columns and labels:
Assay in all cases: cell-based
Parameters in all cases: NanoBRET live-cell target engagement; % occupancy from displacement of tracer K10 on NanoLuc-kinase fusions, mean n=3
Conditions in all cases: HEK293, read-out: % inhibition
IRAK3 = IRAK3 (Homo sapiens, UniProt Q9Y616)
Description: (§1) • 18. Prepare 10× test compounds in OptiMEM • a. Dilute the test compound to 1000× in DMSO (or the test compound solvent). […] Add 10μL per well of 10× test compound or 10μL of the DMSO control to the 96-well plates containing cells with 1× tracer. Mix on orbital shaker for 15 s at 900 rpm. • 20. Incubate the plate at 37°C + 5% CO2 incubator for 2hr. Allow plate to cool to RT for ∼15 min, then proceed to NanoBRET^TM Assay section below. • 21. Immediately before the BRET measurements, prepare 3× Complete NanoBRET^TM Nano-Glo® Substrate in OptiMEM without serum or phenol red. […] Mix gently by inverting 5–10 times in a conical tube. (The final concentration of Extracellular NanoLuc inhibitor in the 3× solution is 60 μM, for a working concentration of 20 μM.) • a. Note: 3× solutions should be used within 1.5 h after preparation. • 22. […] Incubate 2–3 min at RT. Following addition of NanoBRET^TM Nano-Glo® Substrate, measure donor emission (e.g., 450 nm) and acceptor emission (e.g., 610 nm or 630 nm) using a NanoBRET™-compatible luminometer. Fractional occupancy Quantitation • 2. Determine Fractional Occupancy with the following equation; % Occupancy = [1 – (X – Z)/( Y – Z)]∗100 • Where: • X = BRET in the presence of the test compound and tracer, • Y = BRET in the presence of the 100% BRET Control (Tracer + DMSO) • Z = BRET for the Zero BRET Control, e.g., • a. BRET from the NanoLuc Control Vector • b. BRET from Kinase/NanoLuc fusion + saturating dose of control test compound.

WEE1 = WEE1 (Homo sapiens, UniProt P30291)
Description: as §1

NUAK1 = NUAK1 (Homo sapiens, UniProt O60285)
Description: as §1

IGF1R = IGF1R (Homo sapiens, UniProt P08069)
Description: as §1

PRKACA = PRKACA (Homo sapiens, UniProt P17612)
Description: as §1

RPS6KA3 = RPS6KA3 (Homo sapiens, UniProt P51812)
Description: as §1

PKMYT1 = PKMYT1 (Homo sapiens, UniProt Q99640)
Description: as §1

CDK4 = CDK4 (Homo sapiens, UniProt P11802)
Description: as §1

CDK16 = CDK16 (Homo sapiens, UniProt Q00536)
Description: as §1

BRAF(V600E) = BRAF(V600E) (Homo sapiens, UniProt P15056, V600E)
Description: as §1

AKT2 = AKT2 (Homo sapiens, UniProt P31751)
Description: as §1

MAP3K2 = MAP3K2 (Homo sapiens, UniProt Q9Y2U5)
Description: as §1

CDK3 = CDK3 (Homo sapiens, UniProt Q00526)
Description: as §1

TLK2 = TLK2 (Homo sapiens, UniProt Q86UE8)
Description: as §1

MARK4 = MARK4 (Homo sapiens, UniProt Q96L34)
Description: as §1

MAST3 = MAST3 (Homo sapiens, UniProt O60307)
Description: as §1

PLK4 = PLK4 (Homo sapiens, UniProt O00444)
Description: as §1

TXK = TXK (Homo sapiens, UniProt P42681)
Description: as §1

MAST3, sequence (O60307 whole entry): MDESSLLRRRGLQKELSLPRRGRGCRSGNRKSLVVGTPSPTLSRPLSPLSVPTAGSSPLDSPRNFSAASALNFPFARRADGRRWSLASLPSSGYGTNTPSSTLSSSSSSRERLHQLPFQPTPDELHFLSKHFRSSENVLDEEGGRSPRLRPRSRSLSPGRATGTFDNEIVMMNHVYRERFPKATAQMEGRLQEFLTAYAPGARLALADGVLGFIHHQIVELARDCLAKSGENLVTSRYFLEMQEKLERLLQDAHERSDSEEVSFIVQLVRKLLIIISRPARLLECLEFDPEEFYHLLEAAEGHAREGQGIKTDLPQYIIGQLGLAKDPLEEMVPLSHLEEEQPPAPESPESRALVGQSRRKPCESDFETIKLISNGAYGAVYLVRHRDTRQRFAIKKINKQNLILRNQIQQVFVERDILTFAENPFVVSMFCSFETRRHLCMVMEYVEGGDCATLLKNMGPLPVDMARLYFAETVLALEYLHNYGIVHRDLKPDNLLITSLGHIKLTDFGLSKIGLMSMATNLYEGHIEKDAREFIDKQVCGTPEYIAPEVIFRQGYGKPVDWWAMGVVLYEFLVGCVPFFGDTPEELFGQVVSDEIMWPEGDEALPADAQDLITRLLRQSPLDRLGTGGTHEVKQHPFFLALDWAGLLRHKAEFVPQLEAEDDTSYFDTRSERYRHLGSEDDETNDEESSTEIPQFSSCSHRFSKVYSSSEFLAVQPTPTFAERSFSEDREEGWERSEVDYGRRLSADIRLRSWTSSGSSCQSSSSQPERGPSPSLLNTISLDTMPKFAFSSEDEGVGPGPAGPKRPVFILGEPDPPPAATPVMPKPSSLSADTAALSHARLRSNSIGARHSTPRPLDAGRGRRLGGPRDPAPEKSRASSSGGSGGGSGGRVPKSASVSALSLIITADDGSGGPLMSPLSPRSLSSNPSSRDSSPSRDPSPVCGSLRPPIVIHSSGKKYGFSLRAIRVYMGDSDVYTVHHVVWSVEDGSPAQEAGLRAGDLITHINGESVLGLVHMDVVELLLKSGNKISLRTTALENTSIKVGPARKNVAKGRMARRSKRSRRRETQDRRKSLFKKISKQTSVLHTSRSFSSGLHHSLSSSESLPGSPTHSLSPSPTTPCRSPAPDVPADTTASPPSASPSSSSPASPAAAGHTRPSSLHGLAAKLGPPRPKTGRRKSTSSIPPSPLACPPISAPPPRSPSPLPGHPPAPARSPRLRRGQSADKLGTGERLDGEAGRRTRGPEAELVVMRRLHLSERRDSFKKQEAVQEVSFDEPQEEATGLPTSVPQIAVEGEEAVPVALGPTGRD
MARK4, sequence (Q96L34 whole entry): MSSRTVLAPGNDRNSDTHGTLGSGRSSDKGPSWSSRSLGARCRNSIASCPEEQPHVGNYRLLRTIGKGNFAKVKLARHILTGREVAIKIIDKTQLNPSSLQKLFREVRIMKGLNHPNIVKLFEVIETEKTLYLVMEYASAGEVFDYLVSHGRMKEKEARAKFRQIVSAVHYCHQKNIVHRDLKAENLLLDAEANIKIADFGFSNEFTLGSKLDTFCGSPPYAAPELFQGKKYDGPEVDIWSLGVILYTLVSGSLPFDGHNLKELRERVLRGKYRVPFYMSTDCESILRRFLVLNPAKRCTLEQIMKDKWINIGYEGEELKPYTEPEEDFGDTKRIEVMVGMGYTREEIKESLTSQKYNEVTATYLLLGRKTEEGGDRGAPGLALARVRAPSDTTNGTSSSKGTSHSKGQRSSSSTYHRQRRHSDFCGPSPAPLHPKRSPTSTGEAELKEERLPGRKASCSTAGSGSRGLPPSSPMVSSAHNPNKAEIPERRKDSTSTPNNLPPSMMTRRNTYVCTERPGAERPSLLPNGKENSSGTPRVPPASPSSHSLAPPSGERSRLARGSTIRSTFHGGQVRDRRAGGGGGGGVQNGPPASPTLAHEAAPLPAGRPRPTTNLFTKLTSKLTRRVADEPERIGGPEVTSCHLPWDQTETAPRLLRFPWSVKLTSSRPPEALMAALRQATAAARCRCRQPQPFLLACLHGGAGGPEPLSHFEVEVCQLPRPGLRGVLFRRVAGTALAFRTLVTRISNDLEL
MAP3K2, sequence (Q9Y2U5 whole entry): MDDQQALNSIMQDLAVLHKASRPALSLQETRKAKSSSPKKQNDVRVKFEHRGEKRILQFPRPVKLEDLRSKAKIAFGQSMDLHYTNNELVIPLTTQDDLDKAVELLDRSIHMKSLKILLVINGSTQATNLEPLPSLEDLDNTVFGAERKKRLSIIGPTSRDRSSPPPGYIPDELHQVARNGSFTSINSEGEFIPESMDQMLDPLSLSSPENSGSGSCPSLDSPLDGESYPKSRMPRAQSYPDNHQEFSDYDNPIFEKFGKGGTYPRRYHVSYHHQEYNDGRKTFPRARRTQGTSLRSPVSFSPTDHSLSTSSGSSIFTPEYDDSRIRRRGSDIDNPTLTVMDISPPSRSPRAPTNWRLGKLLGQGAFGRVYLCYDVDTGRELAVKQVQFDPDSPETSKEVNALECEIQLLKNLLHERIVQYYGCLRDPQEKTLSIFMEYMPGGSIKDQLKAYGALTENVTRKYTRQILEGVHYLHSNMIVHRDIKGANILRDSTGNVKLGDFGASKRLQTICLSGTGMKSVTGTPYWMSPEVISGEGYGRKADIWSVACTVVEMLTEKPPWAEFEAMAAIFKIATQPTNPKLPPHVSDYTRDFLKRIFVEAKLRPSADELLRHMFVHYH
RPS6KA3, sequence (P51812 whole entry): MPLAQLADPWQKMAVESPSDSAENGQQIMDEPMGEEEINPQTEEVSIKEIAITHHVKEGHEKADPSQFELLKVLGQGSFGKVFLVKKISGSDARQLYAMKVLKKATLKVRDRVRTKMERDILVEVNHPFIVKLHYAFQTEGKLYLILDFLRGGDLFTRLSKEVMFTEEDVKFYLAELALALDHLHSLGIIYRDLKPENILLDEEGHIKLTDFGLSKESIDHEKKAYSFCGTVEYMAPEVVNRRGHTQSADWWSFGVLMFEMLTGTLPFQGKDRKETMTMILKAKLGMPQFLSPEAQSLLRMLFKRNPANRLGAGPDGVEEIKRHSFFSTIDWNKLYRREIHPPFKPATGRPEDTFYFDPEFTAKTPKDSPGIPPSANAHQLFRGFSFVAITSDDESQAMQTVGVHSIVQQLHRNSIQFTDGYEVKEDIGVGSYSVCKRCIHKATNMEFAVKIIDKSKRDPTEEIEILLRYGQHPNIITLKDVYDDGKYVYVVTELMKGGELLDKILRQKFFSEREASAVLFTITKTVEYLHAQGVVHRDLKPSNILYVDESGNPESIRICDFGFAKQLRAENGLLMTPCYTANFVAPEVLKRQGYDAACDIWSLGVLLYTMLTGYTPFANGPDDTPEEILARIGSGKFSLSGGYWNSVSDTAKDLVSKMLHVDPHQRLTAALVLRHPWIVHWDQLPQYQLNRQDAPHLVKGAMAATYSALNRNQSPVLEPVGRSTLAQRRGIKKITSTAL
NUAK1, sequence (O60285 whole entry): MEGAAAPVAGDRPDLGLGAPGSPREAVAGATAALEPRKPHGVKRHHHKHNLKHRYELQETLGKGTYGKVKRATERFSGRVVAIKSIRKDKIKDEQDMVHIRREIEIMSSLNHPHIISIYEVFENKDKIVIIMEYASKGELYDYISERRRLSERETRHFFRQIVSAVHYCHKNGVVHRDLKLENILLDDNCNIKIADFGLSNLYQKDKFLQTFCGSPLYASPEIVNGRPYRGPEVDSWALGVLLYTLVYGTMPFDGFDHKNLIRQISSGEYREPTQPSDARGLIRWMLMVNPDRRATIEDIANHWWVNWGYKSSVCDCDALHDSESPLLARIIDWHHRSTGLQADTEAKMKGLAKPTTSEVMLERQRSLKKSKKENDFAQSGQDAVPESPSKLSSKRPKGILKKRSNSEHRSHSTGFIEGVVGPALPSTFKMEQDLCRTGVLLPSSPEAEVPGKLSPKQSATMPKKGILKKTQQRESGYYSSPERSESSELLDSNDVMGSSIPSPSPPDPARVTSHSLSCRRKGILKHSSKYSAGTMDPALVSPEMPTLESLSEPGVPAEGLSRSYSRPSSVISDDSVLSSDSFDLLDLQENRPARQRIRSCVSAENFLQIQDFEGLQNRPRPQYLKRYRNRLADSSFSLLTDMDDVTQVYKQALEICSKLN
PLK4, sequence (O00444 whole entry): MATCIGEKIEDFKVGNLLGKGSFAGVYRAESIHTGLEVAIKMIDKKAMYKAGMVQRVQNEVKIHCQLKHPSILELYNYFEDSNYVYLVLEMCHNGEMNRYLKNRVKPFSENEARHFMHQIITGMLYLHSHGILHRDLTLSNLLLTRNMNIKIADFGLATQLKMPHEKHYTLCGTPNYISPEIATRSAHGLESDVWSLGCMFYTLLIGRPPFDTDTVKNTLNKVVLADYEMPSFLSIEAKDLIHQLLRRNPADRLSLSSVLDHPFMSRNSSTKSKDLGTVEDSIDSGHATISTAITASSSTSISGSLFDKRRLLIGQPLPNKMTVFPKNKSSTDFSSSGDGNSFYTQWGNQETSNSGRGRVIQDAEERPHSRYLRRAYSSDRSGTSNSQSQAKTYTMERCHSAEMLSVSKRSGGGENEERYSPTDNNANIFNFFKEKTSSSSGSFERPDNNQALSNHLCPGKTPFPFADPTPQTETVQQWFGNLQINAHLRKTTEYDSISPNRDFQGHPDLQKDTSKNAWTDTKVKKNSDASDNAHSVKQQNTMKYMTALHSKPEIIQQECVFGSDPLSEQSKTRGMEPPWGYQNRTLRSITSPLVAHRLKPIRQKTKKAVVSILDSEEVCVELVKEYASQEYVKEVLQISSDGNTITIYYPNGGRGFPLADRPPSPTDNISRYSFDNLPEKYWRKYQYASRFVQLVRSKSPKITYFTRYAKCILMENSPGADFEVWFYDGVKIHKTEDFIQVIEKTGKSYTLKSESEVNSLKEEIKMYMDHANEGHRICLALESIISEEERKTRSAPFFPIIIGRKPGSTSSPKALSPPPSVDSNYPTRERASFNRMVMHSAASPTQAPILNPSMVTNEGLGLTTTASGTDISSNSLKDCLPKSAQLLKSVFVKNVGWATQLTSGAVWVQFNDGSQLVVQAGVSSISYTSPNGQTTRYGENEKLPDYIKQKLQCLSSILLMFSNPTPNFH

inhibition at 1 µM (IRAK3): 42%
inhibition at 1 µM (WEE1): -9%
inhibition at 1 µM (NUAK1): 36%
inhibition at 1 µM (IGF1R): 18%
inhibition at 1 µM (PRKACA): -1%
inhibition at 1 µM (RPS6KA3): -7%
inhibition at 1 µM (PKMYT1): 6%
inhibition at 1 µM (CDK4): 4%
inhibition at 1 µM (CDK16): 2%
inhibition at 1 µM (BRAF(V600E)): -4%
inhibition at 1 µM (AKT2): -1%
inhibition at 1 µM (MAP3K2): 6%
inhibition at 1 µM (CDK3): 6%
inhibition at 1 µM (TLK2): 0%
inhibition at 1 µM (MARK4): -15%
inhibition at 1 µM (MAST3): -1%
inhibition at 1 µM (PLK4): 4%
inhibition at 1 µM (TXK): 18%
Structure (SMILES): C[C@@H](Oc1cc(-c2cnn(C3CCNCC3)c2)cnc1N)c1c(Cl)ccc(F)c1Cl [crizotinib]
